{"source": "patent EP2298282B1", "about": "“COMBINATION OF DRUGS HAVING DIFFERENT PHYSICAL PROPERTIES INTO SINGLE DOSAGE FORM” (Cocokara fine Healthcare Inc., priority 2008, dated 2009)", "type_in_all_cases": "physicochemical", "key": {"[1]": {"assay": "Dispersion in aqueous 0.4% Carbopol solution (electrode gel solution for iontophoresis)", "procedure": "Carbopol (Carbopol 940, manufactured by B. F. Goodrich, 0.2 g) was dissolved in 0.3% citrate buffer (pH 6). The pH level of this solution was adjusted at 6 with sodium hydroxide to bring the total amount of the solution to 50 g, and a solution of 0.4% Carbopol (hereafter referred to as an \"aqueous 0.4% Carbopol solution\") was obtained. The CoQ10-surfactant composite (CoQ10-HydroS, 5 g) obtained in Production Example 14 was dispersed in 50 g of an aqueous 0.4% Carbopol solution with the use of an agitation blade, and a clear homogeneous solution was obtained (hereafter referred to as an \"aqueous 0.4% Carbopol solution containing CoQ10-HydroS\").\nIn this case, CoQ10 remained suspended in the solution. […] Thus, CoQ10, which is a low-solubility, nutritional factor, was prepared in the form of a CoQ10-surfactant composite (CoQ10-HydroS), and an aqueous solution for an electrode gel containing a nutritional factor for iontophoresis homogeneously dispersed/dissolved in water was obtained."}, "[2]": {"assay": "Dispersion in olive oil together with vitamin E (VE)", "excerpt": "The VC·PMg-surfactant composite (VC·PMg-LipoS, 5g) obtained in Production Example 12 and 0.5 g of vitamin E (VE) were dispersed in 1 kg of olive oil with the use of an agitation blade, and a clear homogeneous solution was obtained. This homogeneous solution was subjected to plastic filling with the use of a rotary soft capsule filling machine in constant amounts of 0.4 g, and soft capsules containing VC·PMg and VE with high content uniformity were obtained. Soft capsules could be produced in a twist-off form as well as in a general oval form. Similarly, constant amounts of 0.1 g were subjected to plastic filling with the use of a seamless soft capsule filling machine to obtain soft capsules containing VC·PMg and VE with high content uniformity. […] In this case, VC·PMg remained suspended in the solution. […] The formed soft capsules were packaged in easy-peel blister packs composed of a plastic film and an aluminum film. Thus, products that allow soft capsules with a low degree of hardness to be easily removed and are clean and easy to carry were obtained. Soft capsules were also packaged in press-through blister packs."}, "[3]": {"assay": "Long-term stability (2-year) at room temperature, browning", "settings": "stored at room temperature for 2 years", "excerpt": "Long-term stability (2-year) was inspected at room temerature using S/O VC·PMg obtained in Production Example 5. A non-S/O VC·PMg solution was used as a positive control, and a dispersion medium used for S/O preparation was used as a negative control.\nThe photograph shown in Fig. 6 was stored at room temperature for 2 years."}}, "data": [{"molecule": "COC1=C(OC)C(=O)C(C/C=C(\\C)CC/C=C(\\C)CC/C=C(\\C)CC/C=C(\\C)CC/C=C(\\C)CC/C=C(\\C)CC/C=C(\\C)CC/C=C(\\C)CC/C=C(\\C)CCC=C(C)C)=C(C)C1=O", "note": "[CoQ10, ubiquinone]", "values": [{"measurement": "appearance of the dispersion", "setting": "[1]; dispersed in 50 g of aqueous 0.4% Carbopol solution (pH 6)", "result": "a clear solution was not obtained"}, {"measurement": "appearance when allowed to stand", "setting": "[1]; in 50 g of aqueous 0.4% Carbopol solution containing 4.5 g of SLS, allowed to stand", "result": "a precipitate was observed"}]}, {"molecule": "O=C1O[C@H]([C@@H](O)CO)C([O-])=C1OP(=O)([O-])[O-].O=C1O[C@H]([C@@H](O)CO)C([O-])=C1OP(=O)([O-])[O-].[Mg+2].[Mg+2].[Mg+2]", "note": "[VC·PMg, magnesium ascorbyl phosphate]", "values": [{"measurement": "appearance of the dispersion", "setting": "[2]; dispersed with 0.5 g VE in 1 kg of olive oil", "result": "a clear solution was not obtained"}, {"measurement": "appearance when allowed to stand", "setting": "[2]; with 0.5 g VE in 1 kg of olive oil containing 4.5 g ER-290, allowed to stand", "result": "a precipitate was observed"}]}, {"molecule": "O=C1O[C@H]([C@@H](O)CO)C([O-])=C1OP(=O)([O-])[O-].O=C1O[C@H]([C@@H](O)CO)C([O-])=C1OP(=O)([O-])[O-].[Mg+2].[Mg+2].[Mg+2]", "note": "[VC·PMg solution, magnesium ascorbyl phosphate]", "values": [{"measurement": "browning", "setting": "[3]", "result": "browned with the elapse of time"}]}]}
